# From patent US9204653B2, “5-fluoro pyrimidine derivatives” (DOW AGROSCIENCES LLC, priority 2008, dated 2015)
# Read-outs that look alike come from different tables or passages of the source.
# Tested on: Mycosphaerella graminicola; Anamorph: Septoria tritici; Bayer Code SEPTTR
# Assay: Leaf blotch of wheat, foliar fungicide treatment, one day protectant (1DP) or three day curative (3DC)
# Assay type: in vivo, Septoria tritici on wheat plants (variety Yuma)
# Conditions: Zymoseptoria tritici; for pest or weed control at 50 ppm / pest or weed control at 200 ppm: % disease control rating
# [1] = 24 h, one day protectant, 25 ppm, rating of percent disease control, read-out: SETTTR 1DP 25 ppm
# [2] = 24 h, one day protectant, rating of percent disease control, read-out: SEPTTR 1DP 100 ppm
# [3] = 72 h, three day curative, 25 ppm, rating of percent disease control, read-out: SEPTTR 3DC 25 ppm
# [4] = 72 h, three day curative, rating of percent disease control, read-out: SEPTTR 3DC 100 ppm
# [5] = 24 h, one day protectant (1DP), 25 ppm, rating of percent disease control, read-out: SETTTR 1DP 25 ppm
# [6] = 24 h, one day protectant (1DP), rating of percent disease control, read-out: SEPTTR 1DP 100 ppm
# [7] = 72 h, three day curative (3DC), 25 ppm, rating of percent disease control, read-out: SEPTTR 3DC 25 ppm
# [8] = 72 h, three day curative (3DC), rating of percent disease control, read-out: SEPTTR 3DC 100 ppm
# [9] = 24 h, one day protectant (1DP), 25 ppm (first 1DP column), percent control rating, read-out: SETTTR 1DP 25 ppm
# [10] = 24 h, one day protectant (1DP), 25 ppm as printed (second 1DP column), percent control rating, read-out: SETTTR 1DP 25 ppm
# [11] = 72 h, three day curative (3DC), 25 ppm, percent control rating, read-out: SEPTTR 3DC 25 ppm
# [12] = 72 h, three day curative (3DC), percent control rating, read-out: SEPTTR 3DC 100 ppm
# [13] = 24 h, one day protectant (1DP), 25 ppm, percent disease control rating, read-out: SETTTR 1DP 25 ppm
# [14] = 24 h, one day protectant (1DP), percent disease control rating, read-out: SEPTTR 1DP 100 ppm
# [15] = 72 h, three day curative (3DC), 25 ppm, percent disease control rating, read-out: SEPTTR 3DC 25 ppm
# [16] = 72 h, three day curative (3DC), percent disease control rating, read-out: SEPTTR 3DC 100 ppm
compound,measurement,setting,value
C=CCCOc1ncc(F)c(N)n1 [Compound 653],pest or weed control at 25 ppm,[1],0 to 25%
same,pest or weed control at 100 ppm,[2],0 to 25%
same,pest or weed control at 25 ppm,[3],26 to 50%
same,pest or weed control at 100 ppm,[4],76 to 100%
O=C(Cc1ccccc1)Nc1nc(OCc2ccc(F)cc2)ncc1F [Compound 394],pest or weed control at 25 ppm,[5],76 to 100%
same,pest or weed control at 100 ppm,[6],76 to 100%
same,pest or weed control at 25 ppm,[7],76 to 100%
same,pest or weed control at 100 ppm,[8],76 to 100%
Nc1nc(OCc2snc(Cl)c2Cl)ncc1F [Compound 442],pest or weed control at 25 ppm,[5],76 to 100%
same,pest or weed control at 100 ppm,[6],76 to 100%
same,pest or weed control at 25 ppm,[7],76 to 100%
same,pest or weed control at 100 ppm,[8],76 to 100%
Cc1cnc(CNc2nc(OCCc3ccccc3)ncc2F)cn1 [Compound 934],pest or weed control at 50 ppm,"24 h, one day protectant",0 to 25%
same,pest or weed control at 200 ppm,"24 h, one day protectant",26 to 50%
COc1ncc(F)c(NNc2ncnc3ccccc23)n1 [Compound 1051],pest or weed control at 25 ppm,[9],0 to 25%
same,pest or weed control at 25 ppm,[10],0 to 25%
same,pest or weed control at 25 ppm,[11],26 to 50%
same,pest or weed control at 100 ppm,[12],0 to 25%
"COc1ccc(N(N)c2nc(OCc3cccc(OC)c3)ncc2F)cc1 [Compound 31, 5-Fluoro-2-(3-methoxybenzyloxy)-4-(1-(4-methoxyphenyl)-hydrazinyl)pyrimidine]",pest or weed control at 25 ppm,[13],0 to 25%
same,pest or weed control at 100 ppm,[14],0 to 25%
same,pest or weed control at 25 ppm,[15],0 to 25%
same,pest or weed control at 100 ppm,[16],0 to 25%
COc1ccc(Oc2ncc(F)c(NCO)n2)cc1 [Compound 113],pest or weed control at 25 ppm,[13],51 to 75%
same,pest or weed control at 100 ppm,[14],76 to 100%
same,pest or weed control at 25 ppm,[15],0 to 25%
same,pest or weed control at 100 ppm,[16],26 to 50%
"Fc1ccc(COc2ncc(F)c(NCOCc3ccccc3)n2)cc1 [Compound 18, Benzyloxymethyl[5-fluoro-2-(4-fluorobenzyloxy)pyrimidin-4-yl]amine]",pest or weed control at 25 ppm,[13],51 to 75%
same,pest or weed control at 100 ppm,[14],76 to 100%
same,pest or weed control at 25 ppm,[15],51 to 75%
same,pest or weed control at 100 ppm,[16],51 to 75%
CN(C)/C=N/c1nc(OC(=O)OCC(Cl)(Cl)Cl)ncc1F [Compound 634],pest or weed control at 25 ppm,[1],76 to 100%
same,pest or weed control at 100 ppm,[2],76 to 100%
same,pest or weed control at 25 ppm,[3],76 to 100%
same,pest or weed control at 100 ppm,[4],76 to 100%
NN(c1ccccc1)c1nc(OCc2ccccc2)ncc1F [Compound 482],pest or weed control at 25 ppm,[5],0 to 25%
same,pest or weed control at 100 ppm,[6],0 to 25%
same,pest or weed control at 25 ppm,[7],0 to 25%
same,pest or weed control at 100 ppm,[8],26 to 50%
CC(C)Oc1cccc(COc2ncc(F)c(N)n2)c1 [Compound 441],pest or weed control at 25 ppm,[5],76 to 100%
same,pest or weed control at 100 ppm,[6],76 to 100%
same,pest or weed control at 25 ppm,[7],76 to 100%
same,pest or weed control at 100 ppm,[8],76 to 100%
C=CCOc1ncc(F)c(NNc2cccc(F)n2)n1 [Compound 1086],pest or weed control at 25 ppm,[9],0 to 25%
same,pest or weed control at 25 ppm,[10],0 to 25%
same,pest or weed control at 25 ppm,[11],0 to 25%
same,pest or weed control at 100 ppm,[12],0 to 25%
COc1cc(Cl)c(COc2ncc(F)c(N)n2)cc1OC [Compound 350],pest or weed control at 25 ppm,[5],76 to 100%
same,pest or weed control at 100 ppm,[6],76 to 100%
same,pest or weed control at 25 ppm,[7],76 to 100%
same,pest or weed control at 100 ppm,[8],76 to 100%
COCCCOc1ncc(F)c(N)n1 [Compound 315],pest or weed control at 25 ppm,[5],51 to 75%
same,pest or weed control at 100 ppm,[6],76 to 100%
same,pest or weed control at 25 ppm,[7],76 to 100%
same,pest or weed control at 100 ppm,[8],76 to 100%
CC(Oc1ncc(F)c(N)n1)c1ccc([N+](=O)[O-])cc1 (centres unmarked) [Compound 393],pest or weed control at 25 ppm,[5],26 to 50%
same,pest or weed control at 100 ppm,[6],76 to 100%
same,pest or weed control at 25 ppm,[7],26 to 50%
same,pest or weed control at 100 ppm,[8],76 to 100%
Fc1cnc(OCc2cccc(C(F)(F)F)c2)nc1NCc1ccc(Cl)cc1 [Compound 813],pest or weed control at 50 ppm,"24 h, one day protectant",76 to 100%
same,pest or weed control at 200 ppm,"24 h, one day protectant",76 to 100%
O=C(Nc1ccsc1)Nc1nc(OCCNc2ccccc2)ncc1F [Compound 529],pest or weed control at 25 ppm,[5],0 to 25%
same,pest or weed control at 100 ppm,[6],0 to 25%
same,pest or weed control at 25 ppm,[7],0 to 25%
same,pest or weed control at 100 ppm,[8],0 to 25%
CCOC(=O)COC(=O)Nc1nc(OCc2ccc(F)cc2)ncc1F [Compound 295],pest or weed control at 25 ppm,[5],76 to 100%
same,pest or weed control at 100 ppm,[6],76 to 100%
same,pest or weed control at 25 ppm,[7],76 to 100%
same,pest or weed control at 100 ppm,[8],76 to 100%
O=[N+]([O-])c1ccccc1SNc1nc(OCc2cc(Cl)cc(Cl)c2)ncc1F [Compound 90],pest or weed control at 25 ppm,[13],76 to 100%
same,pest or weed control at 100 ppm,[14],76 to 100%
same,pest or weed control at 25 ppm,[15],26 to 50%
same,pest or weed control at 100 ppm,[16],51 to 75%
COc1ncc(F)c(N(O)C(C)C)n1 [Compound 1067],pest or weed control at 25 ppm,[9],0 to 25%
same,pest or weed control at 25 ppm,[10],0 to 25%
same,pest or weed control at 25 ppm,[11],0 to 25%
same,pest or weed control at 100 ppm,[12],0 to 25%
Cc1cccc(C)c1C(=O)Oc1ncc(F)c(/N=C/N(C)C)n1 [Compound 140],pest or weed control at 25 ppm,[13],76 to 100%
same,pest or weed control at 100 ppm,[14],76 to 100%
same,pest or weed control at 25 ppm,[15],76 to 100%
same,pest or weed control at 100 ppm,[16],76 to 100%
